Target: T1, Bcl-2 protein (Recombinant Human Bcl-2 Protein) (Homo sapiens, UniProt P10415)
T1 construct: purchased Novus NBP2-34889
Experiment: Binding evaluation of mixture library compounds to Bcl-2 using AS-MS (affinity selection mass spectrometry)
Details: for ASMS ratio (%) n = 1: replicate n = 1; for ASMS ratio (%) n = 1 / ASMS ratio (%) n = 2: ASMS Ratio(%)=(A−C)/B×100; for ASMS ratio (%) n = 2: replicate n = 2
In short: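 Pooled library of ~1200 compounds ([…] each, final) incubated with recombinant human Bcl-2 (20 μM final) in Tris-HCl pH 7.4, NaCl, Tween-20, DTT buffer, dark, 23° C., 1 h. Bound fraction recovered by SEC spin column, organic extraction, reversed-phase LC/MS. ASMS Ratio (%) = (A−C)/B×100 versus protein-free standard and SEC blank.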

[1] = AS-MS on the mixture of 1200 library compounds
[2] = AS-MS, mixture of 1200 compounds, Bcl-2

T1 sequence (P10415 whole entry): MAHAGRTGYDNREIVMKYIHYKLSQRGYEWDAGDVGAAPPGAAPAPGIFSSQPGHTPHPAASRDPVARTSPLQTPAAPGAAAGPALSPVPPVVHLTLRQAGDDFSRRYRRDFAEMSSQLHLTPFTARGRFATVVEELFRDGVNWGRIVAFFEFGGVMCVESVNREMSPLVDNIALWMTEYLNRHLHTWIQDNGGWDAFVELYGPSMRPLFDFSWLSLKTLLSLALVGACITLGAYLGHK

## CCOc1cccc(-c2ccccc2CN2CCN(c3ccc(C(=O)NS(=O)(=O)c4ccc(NCCSc5ccccc5)c([N+](=O)[O-])c4)nn3)CC2)c1 [B2Q071-01, 6-[4-[[2-(3-Ethoxyphenyl)phenyl]methyl]piperazin-1-yl]-N-[3-nitro-4-(2-phenylsulfanylethylamino)phenyl]sulfonylpyridazine-3-carboxamide]
AS-MS, mixture library, Bcl-2
  ASMS ratio (%) n = 1: 25.0%
  ASMS ratio (%) n = 2: 11.2%

## CCOc1cccc(-c2ccccc2CCC(=O)N2CCN(c3ccc(C(=O)NS(=O)(=O)c4ccc(NCCSc5ccccc5)c([N+](=O)[O-])c4)cc3)CC2)c1 [B2Q033-01, 4-[4-[3-[2-(3-Ethoxyphenyl)phenyl]propanoyl]piperazin-1-yl]-N-[3-nitro-4-(2-phenylsulfanylethylamino)phenyl]sulfonylbenzamide]
AS-MS, mixture library, Bcl-2
  ASMS ratio (%) n = 1: 4.2%
  ASMS ratio (%) n = 2: −2.3%

## CCOc1cccc(-c2cnn(-c3cc(C(=O)N4CCN(c5ccc(C(=O)NS(=O)(=O)c6ccc(NCCSc7ccccc7)c([N+](=O)[O-])c6)cc5)CC4)cc(C(F)(F)F)c3)c2)c1 [B2Q043-01, 4-[4-[3-[4-(3-Ethoxyphenyl)pyrazol-1-yl]-5-(trifluoromethyl)benzoyl]piperazin-1-yl]-N-[3-nitro-4-(2-phenylsulfanylethylamino)phenyl]sulfonylbenzamide]
AS-MS, mixture library, Bcl-2
  ASMS ratio (%) n = 1: 12.4%
  ASMS ratio (%) n = 2: −13.4%

## CCOc1cncc(-c2csc(CN3CCN(c4ccc(C(=O)NS(C)(=O)=O)nn4)CC3)c2)c1 [B2I094-01, 6-[4-[[4-(5-Ethoxypyridin-3-yl)thiophen-2-yl]methyl]piperazin-1-yl]-N-methylsulfonylpyridazine-3-carboxamide]
N = 1
  ASMS ratio (%): 0.0%
N = 2
  ASMS ratio (%): 0.0%

## CCOc1cccc(-c2csc(C(=O)N3CCN(c4ccc(C(=O)N(C)CC56CC7CC(CC(C7)C5)C6)nn4)CC3)c2)c1 [B3A001-01, N-(1-Adamantylmethyl)-6-[4-[4-(3-ethoxyphenyl)thiophene-2-carbonyl]piperazin-1-yl]-N-methylpyridazine-3-carboxamide]
[1]
  ASMS ratio (%) n = 1: 0.0%
  ASMS ratio (%) n = 2: −8.4%

## CCOc1cccc(-c2ccc(C(=O)N3CCN(c4ccc(C(=O)NCC56CC7CC(CC(C7)C5)C6)nn4)CC3)c3ccccc23)c1 [B1A013-01, N-(1-Adamantylmethyl)-6-[4-[4-(3-ethoxyphenyl)naphthalene-1-carbonyl]piperazin-1-yl]pyridazine-3-carboxamide]
[2]
  ASMS ratio (%) n = 1: −1.7%
  ASMS ratio (%) n = 2: 2.4%

## CCOc1cccc(C#Cc2ccccc2CN2CCN(c3ccc(C(=O)NS(=O)(=O)c4ccc(NCCSc5ccccc5)c(C(F)(F)F)c4)cc3)CC2)c1 [B2R069-01, 4-[4-[[2-[2-(3-Ethoxyphenyl)ethynyl]phenyl]methyl]piperazin-1-yl]-N-[4-(2-phenylsulfanylethylamino)-3-(trifluoromethyl)phenyl]sulfonylbenzamide]
N = 1
  ASMS ratio (%): 12.3%
N = 2
  ASMS ratio (%): 18.5%

## 6-[4-[[3-(5-Ethoxypyridin-3-yl)-5-(trifluoromethyl)phenyl]methyl]piperazin-1-yl]-N-propylpyridazine-3-carboxamide [B1M029-01]
[2]
  ASMS ratio (%) n = 1: 3.0%
  ASMS ratio (%) n = 2: −0.6%

## CCOc1cncc(-c2ccccc2CN2CCN(c3ccc(C(=O)N(C)CC45CC6CC(CC(C6)C4)C5)cc3)CC2)c1 [B3A046-01, N-(1-Adamantylmethyl)-4-[4-[[2-(5-ethoxypyridin-3-yl)phenyl]methyl]piperazin-1-yl]-N-methylbenzamide]
[1]
  ASMS ratio (%) n = 1: 1.5%
  ASMS ratio (%) n = 2: 3.6%

## CCOc1cncc(-c2ccc(CN3CCN(c4ccc(C(=O)N(C)CC56CC7CC(CC(C7)C5)C6)cc4)CC3)c(OC)c2)c1 [B3A054-01, N-(1-Adamantylmethyl)-4-[4-[[4-(5-ethoxypyridin-3-yl)-2-methoxyphenyl]methyl]piperazin-1-yl]-N-methylbenzamide]
[1]
  ASMS ratio (%) n = 1: 0.0%
  ASMS ratio (%) n = 2: 0.0%

## CCOc1cccc(C#Cc2cc(C(=O)N3CCN(c4ccc(C(=O)N(C)CC56CC7CC(CC(C7)C5)C6)cc4)CC3)cc(C(F)(F)F)c2)c1 [B3A041-01, N-(1-Adamantylmethyl)-4-[4-[3-[2-(3-ethoxyphenyl)ethynyl]-5-(trifluoromethyl)benzoyl]piperazin-1-yl]-N-methylbenzamide]
[1]
  ASMS ratio (%) n = 2: 425.9%

## CCCNC(=O)c1ccc(N2CCN(Cc3cc(OC(C)C)cc(-c4cccc(OCC)c4)c3)CC2)cc1 [B1M015-01]
[2]
  ASMS ratio (%) n = 1: −2.4%
  ASMS ratio (%) n = 2: −3.0%

## CCOc1cccc(C#Cc2ccccc2CN2CCN(c3ccc(C(=O)NCC(F)(F)F)cc3)CC2)c1 [B1K069-01, 4-[4-[[2-[2-(3-Ethoxyphenyl)ethynyl]phenyl]methyl]piperazin-1-yl]-N-(2,2,2-trifluoroethyl)benzamide]
[2]
  ASMS ratio (%) n = 1: 3.5%
  ASMS ratio (%) n = 2: −1.4%

## CCOc1cccc(-c2ccccc2CCC(=O)N2CCN(c3ccc(C(=O)N(C)CC45CC6CC(CC(C6)C4)C5)cc3)CC2)c1 [B3A033-01, N-(1-Adamantylmethyl)-4-[4-[3-[2-(3-ethoxyphenyl)phenyl]propanoyl]piperazin-1-yl]-N-methylbenzamide]
[1]
  ASMS ratio (%) n = 1: 1.1%
  ASMS ratio (%) n = 2: −0.6%

## CCOc1cccc(-c2ccccc2CN2CCN(c3ccc(C(=O)NS(=O)(=O)c4ccc(NCCSc5ccccc5)c(C(F)(F)F)c4)nn3)CC2)c1 [B2R071-01, 6-[4-[[2-(3-Ethoxyphenyl)phenyl]methyl]piperazin-1-yl]-N-[4-(2-phenylsulfanylethylamino)-3-(trifluoromethyl)phenyl]sulfonylpyridazine-3-carboxamide]
N = 1
  ASMS ratio (%): 14.3%
N = 2
  ASMS ratio (%): −9.0%

## CCOc1cncc(-c2cc(OC)c(CN3CCN(c4ccc(C(=O)NCC(F)(F)F)cc4)CC3)c(OC)c2)c1 [B1K060-01]
[2]
  ASMS ratio (%) n = 1: 0.0%
  ASMS ratio (%) n = 2: 0.0%

## CCOc1cccc(-c2ccc(CN3CCN(c4ccc(C(=O)NS(=O)(=O)CCC(F)(F)F)nn4)CC3)cc2F)c1 [B2N077-01, 6-[4-[[4-(3-Ethoxyphenyl)-3-fluorophenyl]methyl]piperazin-1-yl]-N-(3,3,3-trifluoropropylsulfonyl)pyridazine-3-carboxamide]
N = 1
  ASMS ratio (%): 0.0%
N = 2
  ASMS ratio (%): 0.0%

## CCOc1cccc(-c2ccc(C(=O)N3CCN(c4ccc(C(=O)N(C)CC56CC7CC(CC(C7)C5)C6)nn4)CC3)cc2C)c1 [B3A003-01, N-(1-Adamantylmethyl)-6-[4-[4-(3-ethoxyphenyl)-3-methylbenzoyl]piperazin-1-yl]-N-methylpyridazine-3-carboxamide]
[1]
  ASMS ratio (%) n = 1: 6.5%
  ASMS ratio (%) n = 2: 4.9%

## CCOc1cccc(-c2csc(CN3CCN(c4ccc(C(=O)NCC(F)(F)F)nn4)CC3)c2)c1 [B1K093-01, 6-[4-[[4-(3-Ethoxyphenyl)thiophen-2-yl]methyl]piperazin-1-yl]-N-(2,2,2-trifluoroethyl)pyridazine-3-carboxamide]
[2]
  ASMS ratio (%) n = 1: 2.7%
  ASMS ratio (%) n = 2: −0.4%

## CCOc1cccc(-c2ccc(C(=O)N3CCN(c4ccc(C(=O)NS(=O)(=O)c5ccc(NCCSc6ccccc6)c([N+](=O)[O-])c5)nn4)CC3)c3ccccc23)c1 [B2Q013-01, 6-[4-[4-(3-Ethoxyphenyl)naphthalene-1-carbonyl]piperazin-1-yl]-N-[3-nitro-4-(2-phenylsulfanylethylamino)phenyl]sulfonylpyridazine-3-carboxamide]
AS-MS, mixture library, Bcl-2
  ASMS ratio (%) n = 1: 0.0%
  ASMS ratio (%) n = 2: 0.0%

## CCOc1cncc(C#Cc2ccccc2CN2CCN(c3ccc(C(=O)N(C)CC45CC6CC(CC(C6)C4)C5)nn3)CC2)c1 [B3A096-01, N-(1-Adamantylmethyl)-6-[4-[[2-[2-(5-ethoxypyridin-3-yl)ethynyl]phenyl]methyl]piperazin-1-yl]-N-methylpyridazine-3-carboxamide]
[1]
  ASMS ratio (%) n = 1: 7.7%
  ASMS ratio (%) n = 2: 2.4%

## CCOc1cncc(C#Cc2cncc(C(=O)N3CCN(c4ccc(C(=O)NS(=O)(=O)c5ccc(NCCSc6ccccc6)c([N+](=O)[O-])c5)cc4)CC3)c2)c1 [B2Q032-01, 4-[4-[5-[2-(5-Ethoxypyridin-3-yl)ethynyl]pyridine-3-carbonyl]piperazin-1-yl]-N-[3-nitro-4-(2-phenylsulfanylethylamino)phenyl]sulfonylbenzamide]
AS-MS, mixture library, Bcl-2
  ASMS ratio (%) n = 1: −0.2%
  ASMS ratio (%) n = 2: −374.2%

## CCOc1cncc(-c2ccc(CN3CCN(c4ccc(C(=O)Nc5ccc(OC)cc5)cc4)CC3)c(CC)c2)c1 [B1O050-01]
[1]
  ASMS ratio (%) n = 1: 10.3%
  ASMS ratio (%) n = 2: −5.8%

## CCOc1cncc(C#Cc2cncc(C(=O)N3CCN(c4ccc(C(=O)Nc5ccc(OC)cc5)nn4)CC3)c2)c1 [B1O010-01, 6-[4-[5-[2-(5-Ethoxypyridin-3-yl)ethynyl]pyridine-3-carbonyl]piperazin-1-yl]-N-(4-methoxyphenyl)pyridazine-3-carboxamide]
[1]
  ASMS ratio (%) n = 1: 0.0%
  ASMS ratio (%) n = 2: 0.0%

## CCOc1cccc(-c2cc(C(=O)N3CCN(c4ccc(C(=O)Nc5ccc(OC)cc5)cc4)CC3)cc(C(F)(F)F)c2)c1 [B1O039-01, 4-[4-[3-(3-Ethoxyphenyl)-5-(trifluoromethyl)benzoyl]piperazin-1-yl]-N-(4-methoxyphenyl)benzamide]
[1]
  ASMS ratio (%) n = 1: 5.1%
  ASMS ratio (%) n = 2: 0.2%

## 6-[4-[[4-(5-Ethoxypyridin-3-yl)naphthalen-1-yl]methyl]piperazin-1-yl]-N-propylpyridazine-3-carboxamide [B1M047-01]
[2]
  ASMS ratio (%) n = 1: 1.1%
  ASMS ratio (%) n = 2: 0.3%
